What was measured:
Type in all cases: cell-based
[1] = system: SKOV3 (human ovarian carcinoma); assay: CCK-8 cytotoxicity assay, SKOV3; settings: SK-OV-3, 48 h, read-out: Cytotoxicity IC50 Ovarian SKOV3
Method: (§1) The cytotoxicity of the newly synthesized quinolinylphosphonates 7 was evaluated in vitro by testing their antiproliferative activities against several human cancer cell lines: A549 (human lung adenocarcinoma cells), SKOV3 (human ovarian carcinoma), and HEK293 (human embryonic kidney). In order to analyze the selective cytotoxicity facing exclusively cancerous cell lines, cytotoxicity against non-cancerous cell lines (MRC-5, lung fibroblast cells) was also evaluated. Cell counting kit (CCK-8) assay was employed to assess growth inhibition and, cell proliferation inhibitory activities of compounds that are listed in Table 1 as IC50 values. […] According to the data presented in Table 1, in general, all these phosphorated derivatives present higher selective cytotoxicity in the A549 cell line than in the other two cell lines, SKOV3 and HEK293, although slight differences are observed compared to human ovarian carcinoma (SKOV3).
(§2) Cells were cultured according to the supplier’s instructions, A549 (ATCC® CCL-185), SKOV3 (ATCC® HTB-77), HEK293 (CLS GmbH), MRC-5 (ATCC® CCL-171™). Cells were seeded in 96-well plates at a density of 2–2.5 × 10^3 cells per well and incubated overnight in 0.1 mL of media supplied with 10% Fetal Bovine Serum (Lonza, Basel, Switzerland) in a 5% CO2 incubator at 37 °C. On day 2, drugs (concentration between 0.5–50 μM) were added and samples were incubated for 48 h. After treatment, 10 μL of cell counting kit-8 was added to each well for an additional 2 h incubation at 37 °C. The absorbance of each well was determined by an Automatic Elisa Reader System at 450 nm wavelength. CPT was purchased from Sigma-Aldrich and used as a positive control.

[2] = CCK-8 cytotoxicity assay, MRC-5 non-cancerous cells; settings: human, MRC-5 non-malignant lung fibroblasts
Method: as §1, §2

[3] = system: L. infantum promastigotes; assay: In vitro iRFP-L. infantum promastigotes viability assay; settings: Leishmania infantum; 96 h exposure, EC50 ± SD
Method: (§3) The effect of the new quinolinylphosphonate derivatives 7 synthesized was assessed on both free-living promastigotes and intramacrophage amastigotes of L. infantum as it is described in experimental protocols. Primary cultures of intramacrophage amastigotes were obtained from splenic explants from 6-weeks infected Balb/c mice with L. infantum-iRFP promastigotes. The infrared fluorescence emitted by both stage forms of the parasite was used as viability criterium, using 0.5% DMSO as negative control (100% viability) and […] AMB as a positive control (0% viability).
A genetically modified strain of L infantum BCN 150, expressing iRFP protein from Rhodopseudomonas palustris bacteriophytochrome (iRFP-L. infantum), was used to obtain the EC50 values of the different compounds against promastigotes, through the detection of the near-infrared radiation emitted by living parasites exposed to tested molecules. Thus, the viability of promastigotes was calculated after recording their fluorescence at 708 nm in an Odyssey (Li-Cor, NE, USA) infrared imaging.
iRFP-L. infantum promastigotes were cultured using M199 medium (Gibco, Thermo Fisher Scientific, MA, USA), supplemented with 25 mM 4-(2-hydroxyethyl)-1-piperazineethanesulfonic acid (HEPES) pH 6.9, […] hemin, 10 mM glutamine, 0.1 mM adenosine, 0.01 mM folic acid, 1× RPMI 1640 vitamin mix (Sigma, Darmstadt, Germany), 10% (v/v) heat-inactivated foetal bovine serum (Gibco, Thermo Fisher Scientific, MA, USA), 50 U/mL penicillin and 50 µg/mL streptomycin. The assay was carried out, seeding 1 × 10^6 cells/mL of iRFP-L. infantum promastigotes into 96-well optical bottom black plates (Thermo Scientific, MA, USA) along with different concentrations of compound to each well. The final concentration of DMSO, the solvent used to prepare the stock solutions of compounds, was never higher than 0.1%. All of the compounds’ concentrations and controls were assayed by triplicate.

L. infantum amastigotes = assay: Ex vivo murine splenic explant culture, intramacrophage amastigotes; settings: Leishmania infantum, Hec50; intramacrophage amastigotes in splenic explants, 96 h, EC50 ± SD
Method: as §3
The EC50 values of compounds against the amastigote forms were calculated using a cell suspension obtained from spleens extracted from BALB/c mice. Mice had been infected previously with iRFP L. infantum metacyclic promastigotes and sacrificed five weeks after infection. To obtain the cell suspension containing amastigotes, spleens washed with cold phosphate-buffered saline (PBS), were cut into pieces, and incubated with 5 mL of 2 mg/mL collagenase D (Sigma, Darmstadt, Germany), which was prepared in buffer (10 mM HEPES, pH 7.4, 150 mM NaCl, 5 mM KCl, 1 mM MgCl2 and 1.8 mM CaCl2) for 20 min. Subsequently, these cells were passed through a 100 µm cell strainer, collected by centrifugation (500× g for 7 min at 4 °C), washed twice with PBS, and suspended in RPMI medium (Gibco, Thermo Fisher Scientific, MA, USA) supplemented with 10 mM HEPES, 1 mM sodium pyruvate, 1xRPMI 1640 vitamin mix, 10% (v/v) FBS, 50 U/mL penicillin and 50 µg/mL streptomycin, at 37 °C under a 5% CO2 atmosphere.
To assay the effect of the different compounds against amastigotes, which infect splenic cells, these cells were seeded to confluence into 384-well black optical bottom plates (Thermo Scientific, Waltham, MA, USA) in addition to different concentrations of compound to each well. The viability of amastigotes was calculated by recording their fluorescence at 708 nm in an Odyssey (Li-Cor, NE, USA) infrared imaging system, after 96 h of exposure. Plots of the infrared fluorescence against the concentrations of tested compounds were fitted by nonlinear analysis using the Sigma Plot 10.1 statistical package and used to calculate EC50 values. As well as promastigotes viability, the assays were performed in triplicate.

Row | SMILES | IC50 [1] [µM] | IC50 at 48 h [2] [µM] | EC50 [3] [µM] | EC50 (L. infantum amastigotes) [µM]
1 | CCOP(=O)(OCC)c1cccc2c(-c3ccccc3)cc(-c3ccccc3OC)nc12 [7d, Diethyl (2-(2-methoxyphenyl)-4-phenylquinolin-8-yl)phosphonate] | 19.4 ± 1.6 | > 50 | 11.4 ± 0.62 | 19.5 ± 2.38
2 | CCOP(=O)(OCC)c1ccc2nc(-c3ccc(F)c(F)c3)cc(-c3ccccc3)c2c1 [7s, Diethyl (2-(3,4-difluorophenyl)-4-phenylquinolin-6-yl)phosphonate] | > 50 | > 50 | 14.7 ± 1.78 | 14.2 ± 2.83
3 | CCOP(=O)(OCC)c1ccc2nc(-c3ccc(F)cc3)cc(-c3ccccc3)c2c1 [7r, Diethyl (2-(4-fluorophenyl)-4-phenylquinolin-6-yl)phosphonate] | 3.03 ± 1.24 | > 50 | 15.2 ± 1.14 | 29.2 ± 14
4 | Cc1ccc(-c2cc(-c3ccc(F)c(F)c3)nc3c(P(=O)(OC(C)C)OC(C)C)cccc23)cc1 [7q, Diisopropyl (2-(3,4-difluorophenyl)-4-(p-tolyl)quinolin-8-yl)phosphonate] | 4.67 ± 1.5 | > 50 | 7.46 ± 0.76 | 13.9 ± 3.65
5 | CCOP(=O)(OCC)c1cccc2c(-c3ccccc3)cc(-c3ccc(OC)cc3)nc12 [7c, Diethyl (2-(4-methoxyphenyl)-4-phenylquinolin-8-yl)phosphonate] | 25 ± 3.6 | > 50 | 9.46 ± 1.67 | 8.23 ± 1.7
6 | CCOP(=O)(OCC)c1cccc2c(-c3ccc(C)cc3)cc(-c3ccc(F)cc3)nc12 [7j, Diethyl (2-(4-fluorophenyl)-4-(p-tolyl)quinolin-8-yl)phosphonate] | 10.2 ± 0.38 | > 50 | 7.29 ± 0.94 | 9.8 ± 0.48
7 | CCOP(=O)(OCC)c1cccc2c(-c3ccccc3)cc(-c3ccc(F)cc3)nc12 [7b, Diethyl (4-Phenyl-2-(fluorophenyl)quinolin-8-il) phosphonate] | 5.29 ± 1.42 | > 50 | 7.63 ± 0.76 | 14.6 ± 1.3
8 | CCOP(=O)(OCC)c1ccc2nc(-c3ccc(F)c(F)c3)cc(-c3ccc(F)cc3)c2c1 [7u, Diethyl (2-(3,4-difluorophenyl)-4-(4-fluorophenyl)quinolin-6-yl)phosphonate] | > 50 | > 50 | 7.07 ± 0.61 | 26.4 ± 2.2
9 | CCOP(=O)(OCC)c1ccc2nc(-c3ccc(F)c(F)c3)cc(-c3ccc(C)cc3)c2c1 [7x, Diethyl (2-(3,4-difluorophenyl)-4-(p-tolyl)quinolin-6-yl)phosphonate] | > 50 | > 50 | 21.3 ± 2.34 | 33 ± 6.55
10 | Cc1ccc(-c2cc(-c3ccc(F)cc3)nc3c(P(=O)(OC(C)C)OC(C)C)cccc23)cc1 [7p, Diisopropyl (2-(4-fluorophenyl)-4-(p-tolyl)quinolin-8-yl)phosphonate] | 12.1 ± 1.68 | > 50 | 5.01 ± 0.35 | 24.3 ± 2.53
11 | CCOP(=O)(OCC)c1cccc2c(-c3ccccc3)cc(-c3cccc4ccccc34)nc12 [7f, Diethyl (2-(naphthalen-1-yl)-4-phenylquinolin-8-yl)phosphonate] | 4.54 ± 0.52 | > 50 | 20.6 ± 2.19 | 19.7 ± 2.39
12 | CC(C)OP(=O)(OC(C)C)c1cccc2c(-c3ccccc3)cc(-c3ccc(F)c(F)c3)nc12 [7m, Diisopropyl (2-(3,4-difluorophenyl)-4-phenylquinolin-8-yl)phosphonate] | 12.1 ± 1.7 | > 50 | 11.2 ± 0.74 | 10.2 ± 1.34
13 | CCOP(=O)(OCC)c1cccc2c(-c3ccc(F)cc3)cc(-c3ccccc3)nc12 [7g] | 9.29 ± 1.79 | > 50 | 16.1 ± 1.94 | 11.9 ± 5.17
14 | CC(C)OP(=O)(OC(C)C)c1cccc2c(-c3ccc(F)cc3)cc(-c3ccc(F)c(F)c3)nc12 [7o, Diisopropyl (2-(3,4-difluorophenyl)-4-(4-fluorophenyl)quinolin-8-yl)phosphonate] | 22.1 ± 4.47 | > 50 | 19.3 ± 1.79 | 19.7 ± 1.73
15 | CCOP(=O)(OCC)c1cccc2c(-c3ccc(F)cc3)cc(-c3ccc(F)cc3)nc12 [7h, Diethyl (2,4-bis(4-fluorophenyl)quinolin-8-yl)phosphonate] | 9.79 ± 0.59 | > 50 | 8.43 ± 0.92 | 24.2 ± 2.37
16 | CC(C)OP(=O)(OC(C)C)c1cccc2c(-c3ccc(F)cc3)cc(-c3ccc(F)cc3)nc12 [7n, Diisopropyl (2,4-bis(4-fluorophenyl)quinolin-8-yl)phosphonate] | 19.8 ± 3.83 | > 50 | 4.86 ± 0.5 | 5.52 ± 1.11
17 | CC(C)OP(=O)(OC(C)C)c1cccc2c(-c3ccccc3)cc(-c3ccc(F)cc3)nc12 [7l, Diisopropyl (2-(4-fluorophenyl)-4-phenylquinolin-8-yl)phosphonate] | 18.7 ± 1.98 | > 50 | 9.57 ± 0.4 | 19.5 ± 2.23
18 | CCOP(=O)(OCC)c1cccc2c(-c3ccccc3)cc(-c3ccccc3)nc12 [7a, Diethyl (2,4-diphenylquinolin-8-yl)phosphonate] | 9.3 ± 0.76 | > 50 | 0.91 ± 0.04 | 4.03 ± 0.3
19 | CCOP(=O)(OCC)c1ccc2nc(-c3ccc(F)cc3)cc(-c3ccc(F)cc3)c2c1 [7t, Diethyl (2,4-bis(4-fluorophenyl)quinolin-6-yl)phosphonate] | > 50 | > 50 | 16.7 ± 0.72 | 31.5 ± 2.71
20 | CCOP(=O)(OCC)c1cccc2c(-c3ccc(F)cc3)cc(-c3ccc(F)c(F)c3)nc12 [7i, Diethyl (2-(3,4-difluorophenyl)-4-(4-fluorophenyl)quinolin-8-yl)phosphonate] | 37.6 ± 9.1 | > 50 | 6.35 ± 0.16 | 13.4 ± 5.53
21 | CCOP(=O)(OCC)c1cccc2c(-c3ccc(C)cc3)cc(-c3ccc(F)c(F)c3)nc12 [7k, Diethyl (2-(3,4-difluorophenyl)-4-(p-tolyl)quinolin-8-yl)phosphonate] | 10.6 ± 1.13 | > 50 | 2.59 ± 0.48 | 26.2 ± 3.65
22 | CCOP(=O)(OCC)c1ccc2nc(-c3ccc(F)cc3)cc(-c3ccc(C)cc3)c2c1 [7v, Diethyl (2-(4-fluorophenyl)-4-(p-tolyl)quinolin-6-yl)phosphonate] | 41.6 ± 10 | > 50 | 7.02 ± 0.94 | 17.6 ± 7.81

From PMC8399847, “Hybrid Quinolinyl Phosphonates as Heterocyclic Carboxylate Isosteres: Synthesis and Biological Evaluation against Topoisomerase 1B (TOP1B)” (Pharmaceuticals, 2021)
